Experimental data as given in US11452717B2, “Small molecule activators of nicotinamide phosphoribosyltransferase (NAMPT) and uses thereof” (Sanford Burnham Prebys Medical Discovery Institute, priority 2017, dated 2022).

Target: NAMPT enzyme (Homo sapiens (Human), UniProt P43490)
Assay: Enzyme Assay and NMN Detection (NAMPT reaction, fluorescence detection of NMN)
Assay type: biochemical
Details: Table B-1; NAMPT activation, NMN formation
Procedure, shortened: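 Reaction in 50 mM HEPES pH 7.5, 5 mM MgCl2, 0.1% Prionex, 0.005% Tween 20, 1 mM TCEP at room temperature, with 16 nM NAMPT, 120 uM ATP, 5 uM nicotinamide, 6.25 uM PRPP, 0.04 U/ml pyrophosphatase for 2 h. Stopped with acetophenone/KOH then formic acid; NMN quantified by fluorescence (ex380/em460) against calibration curve.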

NAMPT enzyme, sequence (P43490 whole entry, species assumed): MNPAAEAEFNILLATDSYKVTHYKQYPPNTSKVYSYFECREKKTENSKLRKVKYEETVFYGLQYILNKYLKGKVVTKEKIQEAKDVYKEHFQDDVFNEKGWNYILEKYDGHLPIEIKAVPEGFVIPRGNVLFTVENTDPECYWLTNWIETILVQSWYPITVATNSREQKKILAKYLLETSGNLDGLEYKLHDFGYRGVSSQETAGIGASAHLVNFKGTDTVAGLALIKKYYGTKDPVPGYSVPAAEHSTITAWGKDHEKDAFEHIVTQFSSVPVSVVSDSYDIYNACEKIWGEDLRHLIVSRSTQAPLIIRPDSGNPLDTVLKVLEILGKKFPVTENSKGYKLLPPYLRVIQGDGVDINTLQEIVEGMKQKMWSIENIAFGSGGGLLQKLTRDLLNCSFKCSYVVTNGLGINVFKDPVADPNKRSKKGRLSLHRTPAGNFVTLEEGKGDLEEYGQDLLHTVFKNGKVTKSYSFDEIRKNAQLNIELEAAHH

| EC50 [nM] | SMILES |
| --- | --- |
| < 100 | O=C(NCc1cn[nH]c1)Nc1ccc(S(=O)(=O)NCc2ccccc2Cl)cc1 [N-(2-Chloro-benzyl)-4-[3-(1H-pyrazol-4-ylmethyl)-ureido]-benzenesulfonamide] |
| < 100 | COc1ccccc1CNS(=O)(=O)c1ccc(NC(=O)NCc2cn[nH]c2)cc1 [N-(2-Methoxy-benzyl)-4-[3-(1H-pyrazol-4-ylmethyl)-ureido]-benzenesulfonamide] |

Same assay, conditions: Table B-2; NAMPT activation, NMN formation

| SMILES | EC50 [nM] |
| --- | --- |
| COC(=O)c1ccc(NC(=O)c2ccc(NC(=O)NCc3ccncc3)cc2)cc1 [Methyl 4-(4-(3-(pyridin-4-ylmethyl)ureido)benzamido)benzoate] | 100 to 2000 |
| O=C(NCc1ccncc1)Nc1ccc(S(=O)(=O)N(Cc2ccccc2)Cc2ccccc2)cc1 [N,N-Dibenzyl-4-(3-pyridin-4-ylmethyl-ureido)-benzenesulfonamide] | > 20000 |
| CN(C)S(=O)(=O)c1ccc(NC(=O)NCc2ccncc2)cc1 [N,N-Dimethyl-4-(3-pyridin-4-ylmethy-ureido)-benzenesulfonamide] | 2000 to 5000 |
| CCN(CC)C(=O)c1ccc(NC(=O)NCc2ccncc2)cc1 [N,N-diethyl-4-(3-(pyridin-4-ylmethyl)ureido)benzamide] | > 20000 |
| CN(C)C(=O)c1ccc(NC(=O)NCc2ccncc2)cc1 [N,N-dimethyl-4-(3-(pyridin-4-ylmethyl)ureido)benzamide] | > 20000 |
| CN(C)S(=O)(=O)c1ccc(CNS(=O)(=O)c2ccc(NC(=O)NCc3ccncc3)cc2)cc1 [N,N-dimethyl-4-((4-(3-(pyridin-4-ylmethyl)ureido)phenylsulfonamido)methyl)benzenesulfonamide] | 100 to 2000 |
| CC(NS(=O)(=O)c1ccc(NC(=O)NCc2ccncc2)cc1)C1CCC1 (centres unmarked) [N-(1-Cyclobutyl-ethyl)-4-(3-pyridin-4-ylmethyl-ureido)-benzenesulfonamide] | 100 to 2000 |
| CCN1CCCC1CNS(=O)(=O)c1ccc(NC(=O)NCc2ccncc2)cc1 (centres unmarked) [N-(1-Ethyl-pyrrolidin-2-ylmethyl)-4-(3-pyridin-4-ylmethyl-ureido)-benzenesulfonamide] | 100 to 2000 |
| CN1CCC(NS(=O)(=O)c2ccc(NC(=O)NCc3ccncc3)cc2)C1 (centres unmarked) [N-(1-Methyl-pyrrolidin-3-yl)-4-(3-pyridin-4-ylmethyl-ureido)-benzenesulfonamide] | 2000 to 5000 |
| CC(NS(=O)(=O)c1ccc(NC(=O)NCc2ccncc2)cc1)c1ccccc1 (centres unmarked) [N-(1-phenylethyl)-4-(3-(pyridin-4-ylmethyl)ureido)benzenesulfonamide] | 100 to 2000 |
| O=C(NCc1ccncc1)Nc1ccc(C(=O)Nc2ccc3c(c2)OCCO3)cc1 [N-(2,3-dihydrobenzo[b][1,4]dioxin-6-yl)-4-(3-(pyridin-4-ylmethyl)ureido)benzamide] | 100 to 2000 |
| CN(C)CCNC(=O)c1ccc(NC(=O)NCc2ccncc2)cc1 [N-(2-(dimethylamino)ethyl)-4-(3-(pyridin-4-ylmethyl)ureido)benzamide] | 5000 to 20000 |
| CN(C)c1ccccc1NC(=O)c1ccc(NC(=O)NCc2ccncc2)cc1 [N-(2-(dimethylamino)phenyl)-4-(3-(pyridin-4-ylmethyl)ureido)benzamide] | 100 to 2000 |
| O=C(NCc1ccncc1)Nc1ccc(C(=O)NCCN2CCCCC2)cc1 [N-(2-(piperidin-1-yl)ethyl)-4-(3-(pyridin-4-ylmethyl)ureido)benzamide] | 2000 to 5000 |
| O=C(NCc1ccncc1)Nc1ccc(S(=O)(=O)NCc2ccccc2Cl)cc1 [N-(2-Chloro-benzyl)-4-(3-pyridin-4-ylmethyl-ureido)-benzenesulfonamide] | < 100 |

Next, values leading:

| EC50 [nM] | SMILES |
| --- | --- |
| < 100 | CN(Cc1ccccc1Cl)S(=O)(=O)c1ccc(NC(=O)NCc2ccncc2)cc1 [N-(2-Chloro-benzyl)-N-methyl-4-(3-pyridin-4-ylmethyl-ureido)-benzenesulfonamide] |
| 100 to 2000 | N#Cc1ccccc1CNS(=O)(=O)c1ccc(NC(=O)NCc2ccncc2)cc1 [N-(2-Cyano-benzyl)-4-(3-pyridin-4-ylmethyl-ureido)-benzenesulfonamide] |
| < 100 | CN(C)c1ccccc1CNS(=O)(=O)c1ccc(NC(=O)NCc2ccncc2)cc1 [N-(2-Dimethylamino-benzyl)-4-(3-pyridin-4-ylmethyl-ureido)-benzenesulfonamide] |
| 100 to 2000 | CN(C)CCNS(=O)(=O)c1ccc(NC(=O)NCc2ccncc2)cc1 [N-(2-Dimethylamino-ethyl)-4-(3-pyridin-4-ylmethyl-ureido)-benzenesulfonamide] |
| < 100 | CN(Cc1ccccc1F)S(=O)(=O)c1ccc(NC(=O)NCc2ccncc2)cc1 [N-(2-Fluoro-benzyl)-N-methyl-4-(3-pyridin-4-ylmethyl-ureido)-benzenesulfonamide] |
| 2000 to 5000 | O=C(NCc1ccncc1)Nc1ccc(S(=O)(=O)NCCO)cc1 [N-(2-Hydroxy-ethyl)-4-(3-pyridin-4-ylmethyl-ureido)-benzenesulfonamide] |
| 100 to 2000 | CN(CCO)S(=O)(=O)c1ccc(NC(=O)NCc2ccncc2)cc1 [N-(2-Hydroxy-ethyl)-N-methyl-4-(3-pyridin-4-ylmethyl-ureido)-benzenesulfonamide] |
| < 100 | COc1ccccc1CN(C)S(=O)(=O)c1ccc(NC(=O)NCc2ccncc2)cc1 [N-(2-Methoxy-benzyl)-N-methyl-4-(3-pyridin-4-ylmethyl-ureido)-benzenesulfonamide] |
| 100 to 2000 | COCCNS(=O)(=O)c1ccc(NC(=O)NCc2ccncc2)cc1 [N-(2-Methoxy-ethyl)-4-(3-pyridin-4-ylmethyl-ureido)-benzenesulfonamide] |
| 100 to 2000 | COc1ccccc1NS(=O)(=O)c1ccc(NC(=O)NCc2ccncc2)cc1 [N-(2-Methoxy-phenyl)-4-(3-pyridin-4-ylmethyl-ureido)-benzenesulfonamide] |
| 100 to 2000 | Cc1ccccc1CNS(=O)(=O)c1ccc(NC(=O)NCc2ccncc2)cc1 [N-(2-Methyl-benzyl)-4-(3-pyridin-4-ylmethyl-ureido)-benzenesulfonamide] |
| 100 to 2000 | O=C(NCc1ccncc1)Nc1ccc(S(=O)(=O)NCCN2CCOCC2)cc1 [N-(2-Morpholin-4-yl-ethyl)-4-(3-pyridin-4-ylmethyl-ureido)-benzenesulfonamide] |
| 2000 to 5000 | O=C(NCc1ccncc1)Nc1ccc(S(=O)(=O)NCCN2CCCCC2)cc1 [N-(2-Piperidin-1-yl-ethyl)-4-(3-pyridin-4-ylmethyl-ureido)-benzenesulfonamide] |

Same assay, conditions: Table B-3; NAMPT activation, NMN formation

| EC50 [nM] | SMILES |
| --- | --- |
| > 20000 | CCOC(=O)c1ccc(NC(=O)NCc2ccnnc2)cc1 [Ethyl 4-(3-(pyridazin-4-ylmethyl)ureido)benzoate] |
| > 20000 | CCOC(=O)c1ccc(NC(=O)NCc2ccccn2)cc1 [Ethyl 4-(3-(pyridin-2-ylmethyl)ureido)benzoate] |
| > 20000 | CCOC(=O)c1ccc(NC(=O)NCc2cccnc2)cc1 [Ethyl 4-(3-(pyridin-3-ylmethyl)ureido)benzoate] |
| > 20000 | CCOC(=O)c1ccc(NC(=S)NCc2ccncc2)cc1 [Ethyl 4-(3-(pyridin-4-ylmethyl)thioureido)benzoate] |
| > 20000 | CCOC(=O)c1ccc(NC(=O)NCc2ccnc3ccccc23)cc1 [Ethyl 4-(3-(quinolin-4-ylmethyl)ureido)benzoate] |
| > 20000 | CCOC(=O)c1ccc(NC(=O)NCc2ccccc2)cc1 [Ethyl 4-(3-benzylureido)benzoate] |
| > 20000 | COC(=O)c1ccc(N(C)C(=O)NCc2ccncc2)cc1 [Methyl 4-(1-methyl-3-(pyridin-4-ylmethyl)ureido)benzoate] |

| SMILES | EC50 [nM] |
| --- | --- |
| CCOC(=O)c1ccc(NC(=O)NCc2cncnc2)cc1 [Ethyl 4-(3-(pyrimidin-5-ylmethyl)ureido)benzoate] | > 20000 |
